Converted amounts (≈) assume the structure as drawn. The source made the active and inactive calls. No cut-off for these calls is given here.
Key:
[1] = tested on: Mycobacterium intracellulare; assay: Antibacterial activity against Mycobacterium intercellulare by agar-well diffusion assay; format: functional
Candida albicans = assay: Antifungal activity against Candida albicans by agar-well diffusion assay; format: functional; details: for MIC: Candida albicans
Cryptococcus neoformans = assay: Antifungal activity against Cryptococcus neoformans by agar-well diffusion assay; format: functional
Escherichia coli = assay: Antibacterial activity against Escherichia coli by agar-well diffusion assay; format: functional, organism-based
Staphylococcus aureus = assay: Antibacterial activity against Staphylococcus aureus by agar-well diffusion assay; format: functional
[2] = tested on: Trichophyton mentagrophytes; assay: Antifungal activity against Trichophyton mentagrophytes by agar-well diffusion assay; format: functional; details: for MIC: Trichophyton mentagrophytes
Candida = assay: Antifungal activity against Torulopsis cremoris by agar-well diffusion assay; format: functional
Aspergillus flavus = assay: Antifungal activity against Aspergillus flavus by agar-well diffusion assay; format: functional
Yarrowia deformans = assay: Antifungal activity against Torulopsis petrophilum by agar-well diffusion assay; format: functional

SMILES | Activity [1] | Activity (Candida albicans) | inhibition zone (IZ) (Cryptococcus neoformans) | Activity (Escherichia coli) | inhibition zone (IZ) (Staphylococcus aureus) | inhibition zone (IZ) [2] | inhibition zone (IZ) [1] [mm] | inhibition zone (IZ) (Candida albicans) [mm] | inhibition zone (IZ) (Escherichia coli) | MIC (Candida albicans) [µg/mL] | MIC (Candida) [µg/mL] | MIC (Aspergillus flavus) [µg/mL] | MIC (Yarrowia deformans) [µg/mL] | MIC [2] [µg/mL] | Activity (Staphylococcus aureus)
CC(C)=CCC[C@H](C)[C@@]1(O)CC[C@]2(C)C[C@H]3[C@H](C(=O)C[C@@]3(C)O)/C(C=O)=C\C[C@H]21 [OPHIOBOLIN B] | inactive | inactive | <=1 mm | inactive | 3 mm | 7 mm |  |  |  |  |  |  |  |  | 
CC(C)=C[C@H]1C[C@H](C)[C@]2(CC[C@]3(C)C[C@H]4[C@H]5/C(=C\C[C@H]32)C(=O)OC5(O)C[C@@]4(C)O)O1 (stereo partly specified) [OPHIOBOLIN L] |  |  | 3 mm |  | inactive |  | 3 | 1 | inactive |  |  |  |  |  | 
C[C@@H]1[C@H](O)[C@@H](C)/C=C/C=C/C=C/C=C/C=C/C=C/C=C/[C@H](O[C@@H]2O[C@H](C)[C@@H](O)[C@H](N)[C@@H]2O)C[C@@H]2O[C@](O)(C[C@@H](O)C[C@@H](O)[C@H](O)CC[C@@H](O)C[C@@H](O)CC(=O)O[C@H]1C)C[C@H](O)[C@H]2C(=O)O [AMPHOTERICIN B] |  |  |  |  |  |  |  |  |  | 0.78 (≈ 0.844 µM) | 3.12 (≈ 3.38 µM) | 3.12 (≈ 3.38 µM) | 0.2 (≈ 0.216 µM) | 0.78 (≈ 0.844 µM) | 
CC(C)=C[C@H]1C[C@H](C)[C@]2(CC[C@]3(C)C[C@H]4[C@H]5/C(=C\C[C@H]32)C(=O)O[C@H]5C[C@@]4(C)O)O1 [OPHIOBOLIN A LACTONE] |  | inactive | 1 mm | inactive |  | 7 mm | 3 |  |  |  |  |  |  |  | inactive
CC(C)=CCC[C@H](C)[C@@]1(O)CC[C@]2(C)C[C@H]3[C@H]4/C(=C\C[C@H]21)C(=O)O[C@H]4C[C@@]3(C)O [OPHIOBOLIN B LACTONE] | inactive | inactive | 1 mm | inactive |  | 7 mm |  |  |  |  |  |  |  |  | inactive
CC(C)=C[C@H]1C[C@H](C)[C@]2(CC[C@]3(C)C[C@@H]4C(C)=CC(=O)[C@H]4/C(CO)=C\C[C@H]32)O1 [OPHIOBOLIN I] |  | inactive | 1 mm | inactive |  | 7 mm | 3 |  |  |  |  |  |  |  | inactive
CC(C)=C[C@H]1C[C@H](C)[C@]2(CC[C@]3(C)C[C@H]4[C@H](C(=O)C[C@@]4(C)O)/C(C=O)=C\C[C@H]32)O1 [OPHIOBOLIN A] |  |  | 3 mm | inactive | 7 mm | >12 mm | 3 | 7 |  | 125 (≈ 312 µM) | 0.2 (≈ 0.499 µM) | 25 (≈ 62.4 µM) | 1.56 (≈ 3.89 µM) | 12.5 (≈ 31.2 µM) | 
CC(C)=C[C@H]1C[C@H](C)[C@]2(CC[C@]3(C)C[C@H]4[C@@H]5/C(=C\C[C@H]32)C(=O)OC5(O)C[C@@]4(C)O)O1 (stereo partly specified) | inactive | inactive | <=1 mm | inactive | >12 mm | <=7 mm |  |  |  |  |  |  |  |  | 

Source: ChEMBL document CHEMBL1159212, “Microbial metabolites of ophiobolin A and antimicrobial evaluation of ophiobolins” (1995)
